The values that follow come from US20260365653A1, “IRREVERSIBLE MUTEGFR INHIBITORS” (Bayer Aktiengesellschaft, priority 2022, published 2026).

Assay [1] has as its target T1, mutEGFR (D770_N771insSVD) (Homo sapiens, UniProt P00533, DUP768-770).
T1 construct: GST-EGFR #3 (SVD between D770 and N771); made in house; host or cells: Sf9 insect cells (baculovirus)
As to the kind of experiment: Exon20-Mutant-EGFR (D770_N771insSVD) kinase assay (TR-FRET). Format: biochemical. In general terms: TR-FRET usually uses a lanthanide donor and a delayed reading to cut background.

Assay [2] concerns the target T2, mutEGFR (D770_N771insNPG, T790) (Homo sapiens, UniProt P00533, INS770NPG/T790M).
T2 construct: exact insNPG construct not described; in-house EGFR proteins were N-terminal GST fusions from baculovirus/insect cells (borders R669-A1210 given only for WT, insSVD, insASV)
Description: mutEGFR (D770_N771insNPG, T790) kinase assay. Format: biochemical. To be noted: Table 2a, D770_N771insNPG. The source says: The different EGFR proteins used in the biochemical kinase activity inhibition assays were generated inhouse by expression in insect cells using Baculo Virus system and subsequent purification as described in the following paragraphs.
The cDNAs encoding the various protein sequences from human EGFR human (P00533) were optimized for expression in eukaryotic cells and synthesized by the GeneArt Technology at Life Technologies.

The test system of the next assay is BA/F3 (insSVD) cells. Description: Ba/F3-EGFR-insSVD cell survival assay (Cell Titer-Glo). It is filed as cell-based. The procedure, abridged: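 CellTiter-Glo luminescence read after 48 h compound exposure at 37° C. Cells: IL-3-independent Ba/F3 lines transduced with EGFR-insSVD or EGFR-insSVD T790M, maintained on 10 ng/ml EGF and seeded at 4000 per well.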
Background: Cellular ATP, detected with luciferase, serves as a proxy for viable cell number.

[3] abbreviates: mutEGFR (D770_N771insSVD) kinase assay IC50, Table 2a, D770_N771insSVD, 2 mM ATP.
Setting [4] is: Mus musculus, BaF3, 48 h, Table 3a, cell survival, Cell Titer-Glo, with 10 ng/ml EGF, without IL-3.

T2 sequence (P00533 with tags, fused parts or gaps INS770NPG/T790M limits assumed): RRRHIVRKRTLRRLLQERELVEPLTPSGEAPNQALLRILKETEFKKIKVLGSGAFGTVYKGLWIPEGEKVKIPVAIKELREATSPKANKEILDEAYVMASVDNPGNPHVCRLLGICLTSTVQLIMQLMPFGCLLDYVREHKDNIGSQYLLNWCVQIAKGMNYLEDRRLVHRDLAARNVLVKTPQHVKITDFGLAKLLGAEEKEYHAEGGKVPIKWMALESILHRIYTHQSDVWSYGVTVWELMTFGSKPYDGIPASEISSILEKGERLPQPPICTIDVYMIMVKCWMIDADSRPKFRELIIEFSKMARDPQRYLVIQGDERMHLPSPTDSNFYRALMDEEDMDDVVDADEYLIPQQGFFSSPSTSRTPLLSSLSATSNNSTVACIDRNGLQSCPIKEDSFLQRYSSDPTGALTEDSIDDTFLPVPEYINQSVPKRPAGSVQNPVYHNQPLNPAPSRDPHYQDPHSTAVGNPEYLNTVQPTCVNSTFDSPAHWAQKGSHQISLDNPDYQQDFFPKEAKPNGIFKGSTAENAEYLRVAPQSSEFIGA
T1 sequence (P00533 with tags, fused parts or gaps DUP768-770): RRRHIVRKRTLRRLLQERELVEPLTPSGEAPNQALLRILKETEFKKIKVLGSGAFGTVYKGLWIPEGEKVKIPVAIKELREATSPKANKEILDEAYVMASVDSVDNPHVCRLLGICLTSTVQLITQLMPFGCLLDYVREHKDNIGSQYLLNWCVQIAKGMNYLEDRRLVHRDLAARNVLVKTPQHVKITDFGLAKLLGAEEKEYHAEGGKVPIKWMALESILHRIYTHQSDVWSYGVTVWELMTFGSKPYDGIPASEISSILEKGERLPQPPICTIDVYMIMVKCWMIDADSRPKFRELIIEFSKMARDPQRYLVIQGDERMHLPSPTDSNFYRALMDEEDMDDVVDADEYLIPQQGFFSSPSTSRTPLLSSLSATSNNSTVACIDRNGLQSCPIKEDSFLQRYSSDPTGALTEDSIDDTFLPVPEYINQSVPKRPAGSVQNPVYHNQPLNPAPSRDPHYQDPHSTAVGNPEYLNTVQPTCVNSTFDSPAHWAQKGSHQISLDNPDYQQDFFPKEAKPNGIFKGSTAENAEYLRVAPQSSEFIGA

For `C=CC(=O)N1CCn2nc(Nc3ccc(OC)c(F)c3)c(-c3ccncc3)c2C1` [Example 96, 1-[2-(3-fluoro-4-methoxyanilino)-3-(pyridin-4-yl)-6,7-dihydropyrazolo[1,5-a]pyrazin-5(4H)-yl]prop-2-en-1-one], the IC50 (usually the point on the concentration scale where inhibition reaches its midpoint) was 2030 nM in assay [1] (setting [3]), 7960 nM in assay [2] and 7930 nM with BA/F3 (insSVD) cells (setting [4]).
The matching figures for `C=CC(=O)N1CCn2nc(-c3ccc(F)cc3)c(-c3ccncc3)c2C1C` (racemic) [Example 239, 1-[(RS)-2-(4-fluorophenyl)-4-methyl-3-(pyridin-4-yl)-6,7-dihydropyrazolo[1,5-a]pyrazin-5(4H)-yl]prop-2-en-1-one]: 1.39 nM, 4.74 nM and 38.7 nM.
The matching figures for `COCCN(C)C/C=C/C(=O)N1CCn2nc(-c3ccc(Cl)cc3)c(-c3ccncc3)c2C1` [Example 169, (2E)-1-[2-(4-chlorophenyl)-3-(pyridin-4-yl)-6,7-dihydropyrazolo[1,5-a]pyrazin-5(4H)-yl]-4-[(2-methoxyethyl)(methyl)amino]but-2-en-1-one]: 0.18 nM, 0.385 nM and 66.9 nM.
The matching figures for `C=CC(=O)N1CCn2nc(Nc3ccc(Cl)cc3F)c(-c3ccnc4[nH]cc(C)c34)c2C1` [Example 92, 1-[2-(4-chloro-2-fluoroanilino)-3-(3-methyl-1H-pyrrolo[2,3-b]pyridin-4-yl)-6,7-dihydropyrazolo[1,5-a]pyrazin-5(4H)-yl]prop-2-en-1-one]: 24.6 nM, 53.6 nM and 125 nM.
As to `C=CC(=O)N1CCn2nc(-c3cccc(Cl)c3)c(-c3ccncc3)c2C1` [Example 133, 1-[2-(3-chlorophenyl)-3-(pyridin-4-yl)-6,7-dihydropyrazolo[1,5-a]pyrazin-5(4H)-yl]prop-2-en-1-one], the results for the IC50 (in assay [1] (setting [3]); in assay [2]; in the assay with BA/F3 (insSVD) cells (setting [4])) were 3.01 nM, 3.83 nM and 172 nM, respectively.
The like results for `O=C(/C=C/Cl)N1CCn2nc(-c3ccc(Cl)cc3F)c(-c3ccncc3)c2C1` [Example 75, (2E)-3-chloro-1-[2-(4-chloro-2-fluorophenyl)-3-(pyridin-4-yl)-6,7-dihydropyrazolo[1,5-a]pyrazin-5(4H)-yl]prop-2-en-1-one] were, in that order, 0.197 nM, 0.995 nM and 135 nM.
The matching figures for `C=CC(=O)N1CCn2nc(-c3ccc(Cl)cc3F)c(-c3ccncc3C)c2C1` [Example 50, 1-[2-(4-chloro-2-fluorophenyl)-3-(3-methylpyridin-4-yl)-6,7-dihydropyrazolo[1,5-a]pyrazin-5(4H)-yl]prop-2-en-1-one]: 8.5 nM, 135 nM and 156 nM.
The matching figures for `CN(C)C/C=C/C(=O)N1CCn2nc(-c3ccc(C(F)(F)F)cc3F)c(-c3ccncc3)c2C1` [Example 152, (2E)-4-(dimethylamino)-1-{2-[2-fluoro-4-(trifluoromethyl)phenyl]-3-(pyridin-4-yl)-6,7-dihydropyrazolo[1,5-a]pyrazin-5(4H)-yl}but-2-en-1-one]: 1.05 nM, 4.55 nM and 257 nM.
For the molecule `CN(C)C/C=C/C(=O)N1CCn2nc(-c3ccc4occc4c3)c(-c3ccncc3)c2C1` [Example 199, (2E)-1-[2-(1-benzofuran-5-yl)-3-(pyridin-4-yl)-6,7-dihydropyrazolo[1,5-a]pyrazin-5(4H)-yl]-4-(dimethylamino)but-2-en-1-one], the IC50 turned out to be 0.672 nM in assay [1] (setting [3]), 2.05 nM in assay [2] and 132 nM in the assay with BA/F3 (insSVD) cells (setting [4]).
The matching figures for `O=C(/C=C/CN1CCC1)N1CCn2nc(-c3ccc(Cl)cc3)c(-c3ccncc3)c2C1` [Example 162, (2E)-4-(azetidin-1-yl)-1-[2-(4-chlorophenyl)-3-(pyridin-4-yl)-6,7-dihydropyrazolo[1,5-a]pyrazin-5(4H)-yl]but-2-en-1-one]: 0.507 nM, 2.32 nM and 43.8 nM.
Regarding `C=CC(=O)N1CCn2nc(-c3ccc(F)cc3)c(-c3ccnc4[nH]ccc34)c2C1C` (single isomer, unassigned; isomer 2) [Example 261, 1-(2-(4-fluorophenyl)-4-methyl-3-(1H-pyrrolo[2,3-b]pyridin-4-yl)-6,7-dihydropyrazolo[1,5-a]pyrazin-5(4H)-yl) prop-2-en-1-one (isomer 2)], the IC50 is 6.5 nM in assay [1] (setting [3]); 7.3 nM in assay [2]; 111 nM in the assay with BA/F3 (insSVD) cells (Table 3a, cell survival, Cell Titer-Glo, with 10 ng/ml EGF, without IL-3, 48 h).
`Cc1ccc(-c2nn3c(c2-c2ccnc4[nH]ccc24)CN(C(=O)/C=C/CN(C)C)CC3)c(F)c1` [Example 99, (2E)-4-(dimethylamino)-1-[2-(2-fluoro-4-methylphenyl)-3-(1H-pyrrolo[2,3-b]pyridin-4-yl)-6,7-dihydropyrazolo[1,5-a]pyrazin-5(4H)-yl]but-2-en-1-one]: the results for the IC50 (in assay [1] (setting [3]); in assay [2]; with BA/F3 (insSVD) cells (setting [4])) were 5.72 nM, 57.1 nM and 337 nM, respectively.
The like results for `C=CC(=O)N1CCn2nc(-c3ccc(F)cc3)c(-c3ccnc4[nH]ccc34)c2C1C` (single isomer, unassigned; isomer 1) [Example 249, 1-(2-(4-fluorophenyl)-4-methyl-3-(1H-pyrrolo[2,3-b]pyridin-4-yl)-6,7-dihydropyrazolo[1,5-a]pyrazin-5(4H)-yl) prop-2-en-1-one (isomer 1)] were, in that order, 372 nM, 57.5 nM and 98.7 nM.
`C=CC(=O)N1CCn2nc(-c3ccc(F)cc3)c(-c3ccnc4[nH]ccc34)c2C1` [Example 22, 1-[2-(4-fluorophenyl)-3-(1H-pyrrolo[2,3-b]pyridin-4-yl)-6,7-dihydropyrazolo[1,5-a]pyrazin-5(4H)-yl]prop-2-en-1-one]: the IC50 is 5.12 nM in assay [1] (setting [3]); 5.12 nM in assay [1] (mutEGFR (D770_N771insSVD) kinase assay IC50, Table 2b (from US Priority Patent Application), mutEGFR D770_N771insSVD); 3.34 nM in assay [2]; 62 nM in the assay with BA/F3 (insSVD) cells (setting [4]); 62 nM in the assay on BA/F3 (insSVD) cells (Mus musculus, BaF3, 48 h, Table 3b, Ba/F3 EGFR-insSVD).
Turning to `CN(C)C/C=C/C(=O)N1Cc2c(-c3ccncc3)c(-c3ccc(Cl)cc3)nn2CC1(C)C` [Example 217, (2E)-1-[2-(4-chlorophenyl)-6,6-dimethyl-3-(pyridin-4-yl)-6,7-dihydropyrazolo[1,5-a]pyrazin-5(4H)-yl]-4-(dimethylamino)but-2-en-1-one], the IC50 in assay [1] (setting [3]) stood at 6.2 nM; in assay [2], 59.8 nM; in the assay with BA/F3 (insSVD) cells (setting [4]) it was 277 nM.
For `CCN(C)C/C=C/C(=O)N1CCn2nc(-c3ccc(F)cc3)c(-c3ccncc3)c2C1` [Example 71, (2E)-4-[ethyl(methyl)amino]-1-[2-(4-fluorophenyl)-3-(pyridin-4-yl)-6,7-dihydropyrazolo[1,5-a]pyrazin-5(4H)-yl]but-2-en-1-one], the IC50 in assay [1] (setting [3]) was determined as 0.907 nM; in assay [2] it was 3.09 nM; in the assay with BA/F3 (insSVD) cells (setting [4]) it was 120 nM.
In the case of `CN(C)C/C=C/C(=O)N1CCn2nc(-c3ccc4[nH]ccc4c3)c(-c3ccncc3)c2C1` [Example 197, (2E)-4-(dimethylamino)-1-[2-(1H-indol-5-yl)-3-(pyridin-4-yl)-6,7-dihydropyrazolo[1,5-a]pyrazin-5(4H)-yl]but-2-en-1-one], the IC50 in assay [1] (setting [3]) amounted to 1.45 nM; in assay [2] it was 8.01 nM; in the assay with BA/F3 (insSVD) cells (setting [4]), 995 nM.
